Results from patent US20020026053A1, “Novel 3-(substituted) -2- indolinones compounds and use thereof as inhibitors of protein kinase activity” (priority 1997, published 2002).

Experiments:
EGFR = target: T1, EGFR (Homo sapiens, UniProt P00533); experiment: Biochemical EGFR Assay; set-up: concentration or dose not given beside the values; conditions: protocol P.167
T1 construct: endogenous in cells; host or cells: A431 cells (lysate, captured with SUMO1 anti-EGFR antibody)
How it was run: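 EGFR from A431 lysate was captured on anti-EGFR-coated wells and preincubated 30 min with compound (diluted 1:10 in TBS) at room temperature. After ATP/MnCl2 phosphorylation for 5 min, the reaction was stopped with EDTA. Phosphotyrosine was detected by ELISA (anti-phosphotyrosine, peroxidase conjugate, ABTS) at 410 nm.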

PDGF-R = PDGF-R Assay (cellular ELISA, U1242 cells); assay type: cell-based; set-up: concentration or dose not given beside the values; conditions: protocol P.119
How it was run: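 U1242 cells seeded in 0.5% serum, serum-starved, then exposed to compound for 2 hr at 37°C before 5–10 min ligand stimulation and lysis in HNTG. Lysate captured on receptor-antibody-coated plates; phosphotyrosine detected with polyclonal anti-pTyr, goat anti-rabbit IgG and ABTS/H2O2, A410 (ref 630 nm), versus untreated cells.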

T1 sequence (P00533 25-1210): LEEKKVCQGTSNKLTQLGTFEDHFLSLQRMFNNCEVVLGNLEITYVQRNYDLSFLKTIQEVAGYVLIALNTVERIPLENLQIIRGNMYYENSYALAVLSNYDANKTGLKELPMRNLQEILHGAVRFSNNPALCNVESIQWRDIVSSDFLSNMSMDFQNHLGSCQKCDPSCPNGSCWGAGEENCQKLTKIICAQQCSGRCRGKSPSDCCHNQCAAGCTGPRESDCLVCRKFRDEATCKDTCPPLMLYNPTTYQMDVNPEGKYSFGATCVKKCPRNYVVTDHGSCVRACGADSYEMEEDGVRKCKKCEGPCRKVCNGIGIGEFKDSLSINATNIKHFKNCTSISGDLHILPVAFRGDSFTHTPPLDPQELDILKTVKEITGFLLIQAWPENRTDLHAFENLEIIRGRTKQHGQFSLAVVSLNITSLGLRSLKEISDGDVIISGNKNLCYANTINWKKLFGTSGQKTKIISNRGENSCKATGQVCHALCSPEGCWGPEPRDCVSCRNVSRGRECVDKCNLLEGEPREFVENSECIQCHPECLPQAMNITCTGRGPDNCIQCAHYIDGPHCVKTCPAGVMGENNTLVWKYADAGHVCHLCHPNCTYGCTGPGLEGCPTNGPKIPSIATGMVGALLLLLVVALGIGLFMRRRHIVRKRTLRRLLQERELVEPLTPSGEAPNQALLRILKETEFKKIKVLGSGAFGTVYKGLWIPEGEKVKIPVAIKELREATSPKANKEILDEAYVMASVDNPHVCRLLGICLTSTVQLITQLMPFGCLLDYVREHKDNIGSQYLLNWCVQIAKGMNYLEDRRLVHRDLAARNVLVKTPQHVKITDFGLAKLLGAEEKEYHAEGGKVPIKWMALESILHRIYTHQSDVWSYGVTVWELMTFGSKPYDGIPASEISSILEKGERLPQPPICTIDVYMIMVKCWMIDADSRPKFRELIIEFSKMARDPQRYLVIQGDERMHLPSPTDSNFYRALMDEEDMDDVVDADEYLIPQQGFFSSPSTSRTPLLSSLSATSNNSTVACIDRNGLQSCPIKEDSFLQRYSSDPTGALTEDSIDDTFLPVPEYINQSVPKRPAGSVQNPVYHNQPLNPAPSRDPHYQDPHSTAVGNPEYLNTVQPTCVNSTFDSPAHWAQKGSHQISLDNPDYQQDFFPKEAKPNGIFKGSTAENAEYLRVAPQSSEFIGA

COC1CCCN1C=C1C(=O)Nc2c(Br)cc(Br)cc21 (racemic) [10740/A04]
Biochem EGFR % Inhibition (P.167) (EGFR): 5.2%

COC1CCCN1C=C1C(=O)Nc2ccc(I)cc21 (racemic) [10740/B04]
Biochem EGFR % Inhibition (P.167) (EGFR): 36.9%

Cc1c(Br)cc(Br)c2c1C(=Cc1ccc(CO)o1)C(=O)N2 [10739/H11]
PDGF Kinase % Inhibition (P.119) (PDGF-R): 4.2% | Biochem EGFR % Inhibition (P.167) (EGFR): 49.9%

O=C1Nc2c(Br)cc(Br)cc2C1=Cc1cnc2ccccc2c1 [10740/A02]
Biochem EGFR % Inhibition (P.167) (EGFR): −2.4%

O=C1Nc2c(Br)cc(Br)cc2C1=Cc1ccnc2ccccc12 [10740/A03]
Biochem EGFR % Inhibition (P.167) (EGFR): 8.2%

O=C1Nc2c(Br)cc(Br)cc2C1=Cc1ccsc1 [10740/A05]
Biochem EGFR % Inhibition (P.167) (EGFR): 30.3%

O=C1Nc2c(Br)cc(Br)cc2C1=Cc1ccc2ccccc2n1 [10740/A06]
Biochem EGFR % Inhibition (P.167) (EGFR): 13.1%

Cn1cc(C=C2C(=O)Nc3c(Br)cc(Br)cc32)c2ccccc21 [10740/A07]
Biochem EGFR % Inhibition (P.167) (EGFR): 18.7%

Cc1[nH]c2ccccc2c1C=C1C(=O)Nc2c(Br)cc(Br)cc21 [10740/A08]
Biochem EGFR % Inhibition (P.167) (EGFR): −7.9%

O=C1Nc2c(Br)cc(Br)cc2C1=Cc1cc(Br)cs1 [10740/A10]
Biochem EGFR % Inhibition (P.167) (EGFR): 21.9%

CCCCOc1ccc(C=C2C(=O)Nc3c(Br)cc(Br)cc32)cc1 [10740/A11]
Biochem EGFR % Inhibition (P.167) (EGFR): 26.0%

O=C1Nc2ccc(I)cc2C1=Cc1cnc2ccccc2c1 [10740/B02]
Biochem EGFR % Inhibition (P.167) (EGFR): 46.1%

O=C1Nc2ccc(I)cc2C1=Cc1ccnc2ccccc12 [10740/B03]
Biochem EGFR % Inhibition (P.167) (EGFR): 40.1%

O=C1Nc2ccc(I)cc2C1=Cc1ccsc1 [10740/B05]
Biochem EGFR % Inhibition (P.167) (EGFR): 30.7%

O=C1Nc2ccc(I)cc2C1=Cc1ccc2ccccc2n1 [10740/B06]
Biochem EGFR % Inhibition (P.167) (EGFR): 44.4%

Cn1cc(C=C2C(=O)Nc3ccc(I)cc32)c2ccccc21 [10740/B07]
Biochem EGFR % Inhibition (P.167) (EGFR): 48.9%

Cc1[nH]c2ccccc2c1C=C1C(=O)Nc2ccc(I)cc21 [10740/B08]
Biochem EGFR % Inhibition (P.167) (EGFR): 34.8%

O=C1Nc2ccc(I)cc2C1=Cc1cc(Br)cs1 [10740/B10]
Biochem EGFR % Inhibition (P.167) (EGFR): 39.9%

CCCCOc1ccc(C=C2C(=O)Nc3ccc(I)cc32)cc1 [10740/B11]
Biochem EGFR % Inhibition (P.167) (EGFR): 48.1%

Cc1c(Br)ccc2c1C(=Cc1cnc3ccccc3c1)C(=O)N2 [10740/C02]
Biochem EGFR % Inhibition (P.167) (EGFR): 15.6%

Cc1c(Br)ccc2c1C(=Cc1ccnc3ccccc13)C(=O)N2 [10740/C03]
Biochem EGFR % Inhibition (P.167) (EGFR): 7.2%

COC1CCCN1C=C1C(=O)Nc2ccc(Br)c(C)c21 (centres unmarked) [10740/C04]
Biochem EGFR % Inhibition (P.167) (EGFR): 7.8%

Cc1c(Br)ccc2c1C(=Cc1ccsc1)C(=O)N2 [10740/C05]
Biochem EGFR % Inhibition (P.167) (EGFR): 3.5%

Cc1c(Br)ccc2c1C(=Cc1ccc3ccccc3n1)C(=O)N2 [10740/C06]
Biochem EGFR % Inhibition (P.167) (EGFR): 18.2%

Cc1c(Br)ccc2c1C(=Cc1cn(C)c3ccccc13)C(=O)N2 [10740/C07]
Biochem EGFR % Inhibition (P.167) (EGFR): 5.0%

Cc1[nH]c2ccccc2c1C=C1C(=O)Nc2ccc(Br)c(C)c21 [10740/C08]
Biochem EGFR % Inhibition (P.167) (EGFR): 10.7%

Cc1c(Br)ccc2c1C(=Cc1cc(Br)cs1)C(=O)N2 [10740/C10]
Biochem EGFR % Inhibition (P.167) (EGFR): 21.9%

CCCCOc1ccc(C=C2C(=O)Nc3ccc(Br)c(C)c32)cc1 [10740/C11]
Biochem EGFR % Inhibition (P.167) (EGFR): 18.7%

CNS(=O)(=O)c1ccc2c(c1)C(=Cc1cnc3ccccc3c1)C(=O)N2 [10740/D02]
Biochem EGFR % Inhibition (P.167) (EGFR): 0.0%

CNS(=O)(=O)c1ccc2c(c1)C(=Cc1ccnc3ccccc13)C(=O)N2 [10740/D03]
Biochem EGFR % Inhibition (P.167) (EGFR): −6.9%

CNS(=O)(=O)c1ccc2c(c1)C(=CN1CCCC1OC)C(=O)N2 (centres unmarked) [10740/D04]
Biochem EGFR % Inhibition (P.167) (EGFR): −1.2%

CNS(=O)(=O)c1ccc2c(c1)C(=Cc1ccsc1)C(=O)N2 [10740/D05]
Biochem EGFR % Inhibition (P.167) (EGFR): 7.4%

CNS(=O)(=O)c1ccc2c(c1)C(=Cc1ccc3ccccc3n1)C(=O)N2 [10740/D06]
Biochem EGFR % Inhibition (P.167) (EGFR): 5.8%

CNS(=O)(=O)c1ccc2c(c1)C(=Cc1cn(C)c3ccccc13)C(=O)N2 [10740/D07]
Biochem EGFR % Inhibition (P.167) (EGFR): −3.0%

CNS(=O)(=O)c1ccc2c(c1)C(=Cc1c(C)[nH]c3ccccc13)C(=O)N2 [10740/D08]
Biochem EGFR % Inhibition (P.167) (EGFR): −5.7%

CNS(=O)(=O)c1ccc2c(c1)C(=Cc1cc(Br)cs1)C(=O)N2 [10740/D10]
Biochem EGFR % Inhibition (P.167) (EGFR): 9.9%

CCCCOc1ccc(C=C2C(=O)Nc3ccc(S(=O)(=O)NC)cc32)cc1 [10740/D11]
Biochem EGFR % Inhibition (P.167) (EGFR): 19.3%

O=C1Nc2ccc(S(=O)(=O)Nc3ccc(C(F)(F)F)cc3)cc2C1=Cc1cnc2ccccc2c1 [10740/E02]
Biochem EGFR % Inhibition (P.167) (EGFR): −7.7%

O=C1Nc2ccc(S(=O)(=O)Nc3ccc(C(F)(F)F)cc3)cc2C1=Cc1ccnc2ccccc12 [10740/E03]
Biochem EGFR % Inhibition (P.167) (EGFR): 24.6%

COC1CCCN1C=C1C(=O)Nc2ccc(S(=O)(=O)Nc3ccc(C(F)(F)F)cc3)cc21 (centres unmarked) [10740/E04]
Biochem EGFR % Inhibition (P.167) (EGFR): 12.3%

O=C1Nc2ccc(S(=O)(=O)Nc3ccc(C(F)(F)F)cc3)cc2C1=Cc1ccsc1 [10740/E05]
Biochem EGFR % Inhibition (P.167) (EGFR): 29.1%

O=C1Nc2ccc(S(=O)(=O)Nc3ccc(C(F)(F)F)cc3)cc2C1=Cc1ccc2ccccc2n1 [10740/E06]
Biochem EGFR % Inhibition (P.167) (EGFR): 0.0%

Cn1cc(C=C2C(=O)Nc3ccc(S(=O)(=O)Nc4ccc(C(F)(F)F)cc4)cc32)c2ccccc21 [10740/E07]
Biochem EGFR % Inhibition (P.167) (EGFR): 2.7%

Cc1[nH]c2ccccc2c1C=C1C(=O)Nc2ccc(S(=O)(=O)Nc3ccc(C(F)(F)F)cc3)cc21 [10740/E08]
Biochem EGFR % Inhibition (P.167) (EGFR): 3.1%

O=C1Nc2ccc(S(=O)(=O)Nc3ccc(C(F)(F)F)cc3)cc2C1=Cc1cc(Br)cs1 [10740/E10]
Biochem EGFR % Inhibition (P.167) (EGFR): 33.0%

CCCCOc1ccc(C=C2C(=O)Nc3ccc(S(=O)(=O)Nc4ccc(C(F)(F)F)cc4)cc32)cc1 [10740/E11]
Biochem EGFR % Inhibition (P.167) (EGFR): 8.8%

O=C1Nc2ccc(S(=O)(=O)N3CCOCC3)cc2C1=Cc1cnc2ccccc2c1 [10740/F02]
Biochem EGFR % Inhibition (P.167) (EGFR): 5.8%

O=C1Nc2ccc(S(=O)(=O)N3CCOCC3)cc2C1=Cc1ccnc2ccccc12 [10740/F03]
Biochem EGFR % Inhibition (P.167) (EGFR): 16.8%

COC1CCCN1C=C1C(=O)Nc2ccc(S(=O)(=O)N3CCOCC3)cc21 (centres unmarked) [10740/F04]
Biochem EGFR % Inhibition (P.167) (EGFR): 11.1%

O=C1Nc2ccc(S(=O)(=O)N3CCOCC3)cc2C1=Cc1ccsc1 [10740/F05]
Biochem EGFR % Inhibition (P.167) (EGFR): 14.8%

O=C1Nc2ccc(S(=O)(=O)N3CCOCC3)cc2C1=Cc1ccc2ccccc2n1 [10740/F06]
Biochem EGFR % Inhibition (P.167) (EGFR): 19.9%

Cn1cc(C=C2C(=O)Nc3ccc(S(=O)(=O)N4CCOCC4)cc32)c2ccccc21 [10740/F07]
Biochem EGFR % Inhibition (P.167) (EGFR): −4.2%

Cc1[nH]c2ccccc2c1C=C1C(=O)Nc2ccc(S(=O)(=O)N3CCOCC3)cc21 [10740/F08]
Biochem EGFR % Inhibition (P.167) (EGFR): 5.0%

O=C1Nc2ccc(S(=O)(=O)N3CCOCC3)cc2C1=Cc1cc(Br)cs1 [10740/F10]
Biochem EGFR % Inhibition (P.167) (EGFR): 9.5%

CCCCOc1ccc(C=C2C(=O)Nc3ccc(S(=O)(=O)N4CCOCC4)cc32)cc1 [10740/F11]
Biochem EGFR % Inhibition (P.167) (EGFR): 5.4%

O=C1Nc2ccc(CCCl)cc2C1=Cc1cnc2ccccc2c1 [10740/G02]
Biochem EGFR % Inhibition (P.167) (EGFR): −9.4%

O=C1Nc2ccc(CCCl)cc2C1=Cc1ccnc2ccccc12 [10740/G03]
Biochem EGFR % Inhibition (P.167) (EGFR): 19.5%

COC1CCCN1C=C1C(=O)Nc2ccc(CCCl)cc21 (centres unmarked) [10740/G04]
Biochem EGFR % Inhibition (P.167) (EGFR): 7.6%

O=C1Nc2ccc(CCCl)cc2C1=Cc1ccsc1 [10740/G05]
Biochem EGFR % Inhibition (P.167) (EGFR): 18.7%

O=C1Nc2ccc(CCCl)cc2C1=Cc1ccc2ccccc2n1 [10740/G06]
Biochem EGFR % Inhibition (P.167) (EGFR): −1.2%

Cn1cc(C=C2C(=O)Nc3ccc(CCCl)cc32)c2ccccc21 [10740/G07]
Biochem EGFR % Inhibition (P.167) (EGFR): 27.9%

Cc1[nH]c2ccccc2c1C=C1C(=O)Nc2ccc(CCCl)cc21 [10740/G08]
Biochem EGFR % Inhibition (P.167) (EGFR): −9.1%

O=C1Nc2ccc(CCCl)cc2C1=Cc1cc(Br)cs1 [10740/G10]
Biochem EGFR % Inhibition (P.167) (EGFR): 1.9%

CCCCOc1ccc(C=C2C(=O)Nc3ccc(CCCl)cc32)cc1 [10740/G11]
Biochem EGFR % Inhibition (P.167) (EGFR): −3.4%

Cc1c(Br)cc(Br)c2c1C(=Cc1cnc3ccccc3c1)C(=O)N2 [10740/H02]
Biochem EGFR % Inhibition (P.167) (EGFR): −9.1%

Cc1c(Br)cc(Br)c2c1C(=Cc1ccnc3ccccc13)C(=O)N2 [10740/H03]
Biochem EGFR % Inhibition (P.167) (EGFR): 16.0%

COC1CCCN1C=C1C(=O)Nc2c(Br)cc(Br)c(C)c21 (centres unmarked) [10740/H04]
Biochem EGFR % Inhibition (P.167) (EGFR): −21.0%

Cc1c(Br)cc(Br)c2c1C(=Cc1ccsc1)C(=O)N2 [10740/H05]
Biochem EGFR % Inhibition (P.167) (EGFR): −4.4%

Cc1c(Br)cc(Br)c2c1C(=Cc1ccc3ccccc3n1)C(=O)N2 [10740/H06]
Biochem EGFR % Inhibition (P.167) (EGFR): 4.8%

Cc1c(Br)cc(Br)c2c1C(=Cc1cn(C)c3ccccc13)C(=O)N2 [10740/H07]
Biochem EGFR % Inhibition (P.167) (EGFR): −5.3%

Cc1[nH]c2ccccc2c1C=C1C(=O)Nc2c(Br)cc(Br)c(C)c21 [10740/H08]
Biochem EGFR % Inhibition (P.167) (EGFR): −24.3%

Cc1c(Br)cc(Br)c2c1C(=Cc1cc(Br)cs1)C(=O)N2 [10740/H10]
Biochem EGFR % Inhibition (P.167) (EGFR): −25.5%

CCCCOc1ccc(C=C2C(=O)Nc3c(Br)cc(Br)c(C)c32)cc1 [10740/H11]
Biochem EGFR % Inhibition (P.167) (EGFR): 0.9%
